According to US20080152694A1, “Devices, Systems and Methods for Ophthalmic Drug Delivery” (priority 2006, published 2008):
Converted amounts (≈) assume the structure as drawn.

Tests used:
[1] = Dissolution of gacyclidine base pellets in a continuous flow reactor, eluted with Ringer's solution containing hydrochloric acid; type: physicochemical; details: for pH of the eluted drug solution: 20 μL/hr, room temperature (23±2° C.)
Experimental: A drug chamber similar to the one illustrated in FIG. 5 was loaded with 11 pellets of gacyclidine base having a combined mass of 18 mg. This drug-loaded chamber was eluted at a flow rate of 20 μL/hr at room temperature (23±2° C.) using a MiniMed 508 syringe pump (available from Medtronics MiniMed of Northridge, Calif.). The syringe was loaded with 3 mL of Ringer's solution containing 0.05 to 3 mM hydrochloric acid. The eluted volume was collected in PTFE tubing attached to the pump drug capsule assembly, after a 3-D antibacterial filter. The pH of this solution was determined by use of a pH meter equipped with a Calomel electrode. Drug concentration was determined by HPLC.
The highest pH of the eluted drug solution (5.9) was obtained at 0.05 mM hydrochloric acid, and the lowest pH of the eluted drug solution (5.6) was obtained at 3 mM hydrochloric acid. These pH values indicate quantitative conversion of the hydrochloric acid to the drug salt and are consistent with the pH expected for solutions of the hydrochloride salt.

[2] = Water solubility of gacyclidine forms; type: physicochemical
Description: (§1) An advantage of using solid drug in an implanted device is, in at least some embodiments, the ability to store drug in the device using a smaller volume than might be required if a premixed (or other liquid) form of the drug were used. In some cases, this smaller volume enables implantation of a device containing enough drug to provide (when combined with an appropriate vehicle source) substantially continuous long term therapy. This long term therapy can be over a period of days, weeks, or months. In some cases, long term therapy may extend over several years. One example of a basic crystalline or solid amorphous drug suitable for use in methods according to some embodiments is gacyclidine. For example, it is estimated that 18 mg of solid gacyclidine eroded with an appropriate vehicle will deliver 100 μM drug over 4 years at a flow rate of 20 microliters per hour or less. […] Dissolution of the basic form of gacyclidine in water requires the presence of an acid (e.g., hydrochloric acid or lactic acid) to convert the basic form to the water-soluble acidic form. The concentration of gacyclidine in solution will therefore depend on the amount of acid available to convert the basic form to the acid form. […]

[3] = Stability of gacyclidine forms in the presence of water; type: physicochemical; details: body temperature / in the presence of water
Description: as §1

[4] = type: physicochemical; details: solid pellets exposed to a continuous stream of vehicle such as Ringer's solution
Experimental: Triamcinolone acetonide is commercially available as a crystalline solid with very low water solubility. If solid pellets of triamcinolone acetonide are exposed to a continuous stream of a vehicle, such as Ringer's solution, the expected concentration of extracted triamcinolone acetonide in solution should be 40 μM or less. A higher concentration of triamcinolone acetonide can be solubilized by including an amphipathic molecule in the vehicle. Such a pharmaceutically acceptable amphipathic molecule would be polysorbate 80 (e.g., TWEEN 80®). The concentration of triamcinolone acetonide solubilized can be increased above its water solubility, 40 μM, by adding the required amount of amphipathic molecule to the vehicle that will support the desired drug concentration. The invention is not limited to methods implemented through use of triamcinolone acetonide, Ringer's solution or polysorbate 80. Any sparingly soluble drug, pharmaceutically acceptable vehicle and pharmaceutically acceptable amphipathic molecule can be used.

[5] = cited from earlier work

Row | SMILES | correlation in gacyclidine concentration per hydrochloric acid concentration used for elution ([1]; 0.05 to 3 mM hydrochloric acid in Ringer's solution, drug concentration by HPLC, FIG. 27) | pH of the eluted drug solution ([1]; Ringer's solution with 0.05 mM hydrochloric acid, highest pH) | pH of the eluted drug solution ([1]; Ringer's solution with 3 mM hydrochloric acid, lowest pH) | intercept at zero concentration of hydrochloric acid (gacyclidine concentration) ([1]; linear fit of eluted gacyclidine concentration vs hydrochloric acid concentration, FIG. 27) [mM] | water solubility (in words) [2] | stability (in words) [3] | expected concentration of extracted triamcinolone acetonide in solution [4] [µM] | water solubility [5] [µM]
1 | CC1CCCCC1(c1cccs1)N1CCCCC1 (stereo not shown) [gacyclidine] | 0.976±0.049 | 5.9 | 5.6 | 0.0014 ± 0.0061 | sparingly soluble in water | much more stable than its acidic form | – | –
2 | C[C@H]1CCCC[C@@]1(c1cccs1)N1CCCCC1.Cl [hydrochloride salt of gacyclidine, gacyclidine hydrochloride] | – | – | – | – | highly water soluble | unstable at body temperature | – | –
3 | CC1(C)O[C@@H]2C[C@H]3[C@@H]4CCC5=CC(=O)C=C[C@]5(C)[C@@]4(F)[C@@H](O)C[C@]3(C)[C@]2(C(=O)CO)O1 [triamcinolone acetonide] | – | – | – | – | – | – | ≤ 40 | 40 (≈ 17.4 µg/mL)
